From US10080761B2, “Method for treating recurring skin and mucous membrane diseases caused by HSV-1 and HSV-2” (priority 2013, dated 2018)

Test system: HSV-1 or HSV-2 infection
Experiment: Treatment of a herpes relapse in patients with medium or severe recurring form (Example 1)
Type: in vivo
Conditions: many years of earlier treatment, cream and pills

Nc1nc2c(ncn2COCCO)c(=O)[nH]1 [Aciclovir]
reduction of the number of relapses by previously used preparations: did not reduce the number of relapses
